target: T1, human full-length recombinant PKC βII (Homo sapiens, UniProt P05771); assay: Determination of PKC βII inhibition (Caliper mobility-shift kinase assay, Fluorescein-RFARKGSLRQKNV peptide substrate); assay type: biochemical; conditions: example compounds at a final concentration of 1.14 μM (±0.15 μM)
T1 construct: Active human full-length recombinant PKC βII; purchased Invitrogen GmbH, Darmstadt, Germany
Summary of the method: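 Compounds were tested at 1.14 μM final. Enzyme was activated by PS, DAG and CaCl2 in Hepes pH 7.4 with MgCl2, with substrate 3 μM and ATP 120 μM as pre-mix concentrations. After 60 min at 32 °C and an EDTA stop, Caliper separation gave fractional turnover, which was normalised to no-compound and no-enzyme controls.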

T1 sequence (P05771 1-673 isoform P05771-2): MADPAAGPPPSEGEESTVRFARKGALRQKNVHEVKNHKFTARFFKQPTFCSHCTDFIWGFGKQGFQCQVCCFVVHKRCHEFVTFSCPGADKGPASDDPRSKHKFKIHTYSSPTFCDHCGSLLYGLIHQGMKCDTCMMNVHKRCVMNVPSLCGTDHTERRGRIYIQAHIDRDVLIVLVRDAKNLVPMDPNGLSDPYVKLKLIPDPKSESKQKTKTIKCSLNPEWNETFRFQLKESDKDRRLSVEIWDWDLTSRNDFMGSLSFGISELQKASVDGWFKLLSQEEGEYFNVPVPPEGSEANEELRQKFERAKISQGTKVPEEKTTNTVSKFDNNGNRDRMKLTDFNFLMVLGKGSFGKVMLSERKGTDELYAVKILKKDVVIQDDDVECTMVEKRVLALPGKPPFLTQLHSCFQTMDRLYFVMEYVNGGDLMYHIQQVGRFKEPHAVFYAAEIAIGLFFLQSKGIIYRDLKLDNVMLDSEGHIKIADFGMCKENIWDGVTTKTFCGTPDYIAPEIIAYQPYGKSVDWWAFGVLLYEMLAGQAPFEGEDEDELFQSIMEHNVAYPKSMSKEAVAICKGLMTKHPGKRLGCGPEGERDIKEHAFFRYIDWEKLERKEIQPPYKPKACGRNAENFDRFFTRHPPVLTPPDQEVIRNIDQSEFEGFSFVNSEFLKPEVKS

inhibition at 1.14 µM [%]	Compound
23	O=C(c1cc(-c2ccc(O)cc2)nc2[nH]nc(C(F)(F)F)c12)N1CCC2(CCNCC2)C1 [Example 409, (2,8-Diaza-spiro[4.5]dec-2-yl)-[6-(4-hydroxy-phenyl)-3-trifluoromethyl-1H-pyrazolo[3,4-b]pyridin-4-yl]-methanone]
73	Cc1n[nH]c2nc(-c3ccc(O)c(F)c3)cc(C(=O)N3CCC(N)C3)c12 (centres unmarked) [Example 336, (3-Amino-pyrrolidin-1-yl)-[6-(3-fluoro-4-hydroxy-phenyl)-3-methyl-1H-pyrazolo[3,4-b]pyridin-4-yl]-methanone]
91	Cc1n[nH]c2nc(-c3ccc(O)cc3)cc(C(=O)N3CC(C(C)(C)N)C3)c12 [Example 33, [3-(1-Amino-1-methyl-ethyl)-azetidin-1-yl]-[6-(4-hydroxy-phenyl)-3-methyl-1H-pyrazolo[3,4-b]pyridin-4-yl]-methanone]
100	Cc1cc(O)ccc1-c1cc(C(=O)N2CCNC[C@H]2c2ccccc2)c2c(C)n[nH]c2n1 [Example 150, [6-(4-Hydroxy-2-methyl-phenyl)-3-methyl-1H-pyrazolo[3,4-b]pyridin-4-yl]-((R)-2-phenyl-piperazin-1-yl)-methanone]
72	Cc1n[nH]c2nc(-c3ccc(O)cc3)cc(C(=O)N[C@H]3CC[C@@H](N)CC3)c12 [Example 103, 6-(4-Hydroxy-phenyl)-3-methyl-1H-pyrazolo[3,4-b]pyridine-4-carboxylic acid (cis-4-amino-cyclohexyl)-amide]
94	COc1cc(O)ccc1-c1cc(C(=O)N2CCNC[C@@H]2C)c2c(C)n[nH]c2n1 [Example 18, [6-(4-Hydroxy-2-methoxy-phenyl)-3-methyl-1H-pyrazolo[3,4-b]pyridin-4-yl]-((S)-2-methyl-piperazin-1-yl)-methanone]
83	Cc1n[nH]c2nc(-c3ccc(O)cc3)cc(C(=O)NC(CN)c3ccc(F)cc3)c12 (centres unmarked) [Example 107, 6-(4-Hydroxy-phenyl)-3-methyl-1H-pyrazolo[3,4-b]pyridine-4-carboxylic acid [2-amino-1-(4-fluoro-phenyl)-ethyl]-amide]
98	COC(=O)[C@H]1CNCCN1C(=O)c1cc(-c2ccc(O)cc2)nc2[nH]nc(C)c12 [Example 206, (R)-1-[6-(4-Hydroxy-phenyl)-3-methyl-1H-pyrazolo[3,4-b]pyridine-4-carbonyl]-piperazine-2-carboxylic acid methyl ester]
45	Cc1n[nH]c2nc(-c3ccc(O)cc3)cc(C(=O)N3CCN(C4CCC4)CC3)c12 [Example 39, (4-Cyclobutyl-piperazin-1-yl)-[6-(4-hydroxy-phenyl)-3-methyl-1H-pyrazolo[3,4-b]pyridin-4-yl]-methanone]
98	Cc1cc(O)ccc1-c1cc(C(=O)N2CCNC[C@@H]2c2cccc(F)c2)c2c(C)n[nH]c2n1 [Example 141, [(S)-2-(3-Fluoro-phenyl)-piperazin-1-yl]-[6-(4-hydroxy-2-methyl-phenyl)-3-methyl-1H-pyrazolo[3,4-b]pyridin-4-yl]-methanone]
98	Cc1n[nH]c2nc(-c3ccc(O)cc3F)cc(C(=O)N3C[C@@H](C)NC[C@@H]3C)c12 [Example 429, ((2S,5R)-2,5-Dimethyl-piperazin-1-yl)-[6-(2-fluoro-4-hydroxy-phenyl)-3-methyl-1H-pyrazolo[3,4-b]pyridin-4-yl]-methanone]
90	CCC(CCN)NC(=O)c1cc(-c2ccc(O)cc2)nc2[nH]nc(C)c12 (centres unmarked) [Example 127, 6-(4-Hydroxy-phenyl)-3-methyl-1H-pyrazolo[3,4-b]pyridine-4-carboxylic acid (3-amino-1-ethyl-propyl)-amide]
98	Cc1n[nH]c2nc(-c3ccc(O)cc3F)cc(C(=O)N3CCNCC34CCCC4)c12 [Example 433, (6,9-Diaza-spiro[4.5]dec-6-yl)-[6-(2-fluoro-4-hydroxy-phenyl)-3-methyl-1H-pyrazolo[3,4-b]pyridin-4-yl]-methanone]
92	Cc1n[nH]c2nc(-c3ccc(O)cc3F)cc(C(=O)NCC3(N)CCCCCC3)c12 [Example 61, 6-(2-Fluoro-4-hydroxy-phenyl)-3-methyl-1H-pyrazolo[3,4-b]pyridine-4-carboxylic acid (1-amino-cycloheptylmethyl)-amide]
89	Cc1n[nH]c2nc(-c3ccc(O)cc3)cc(C(=O)N3CCCC(C)(N)C3)c12 (centres unmarked) [Example 117, (3-Amino-3-methyl-piperidin-1-yl)-[6-(4-hydroxy-phenyl)-3-methyl-1H-pyrazolo[3,4-b]pyridin-4-yl]-methanone]
89	Cc1n[nH]c2nc(-c3ccc(O)cc3)cc(C(=O)NCC(C)(C)N)c12 [Example 133, 6-(4-Hydroxy-phenyl)-3-methyl-1H-pyrazolo[3,4-b]pyridine-4-carboxylic acid (2-amino-2-methyl-propyl)-amide]
65	Cc1n[nH]c2nc(-c3ccc(O)cc3)cc(C(=O)NCC(C)N3CCCC3)c12 (centres unmarked) [Example 389, 6-(4-Hydroxy-phenyl)-3-methyl-1H-pyrazolo[3,4-b]pyridine-4-carboxylic acid (2-pyrrolidin-1-yl-propyl)-amide]
87	Cc1n[nH]c2nc(-c3ccc(O)cc3)cc(C(=O)N3CCNCC3C(F)(F)F)c12 (centres unmarked) [Example 114, [6-(4-Hydroxy-phenyl)-3-methyl-1H-pyrazolo[3,4-b]pyridin-4-yl]-(2-trifluoromethyl-piperazin-1-yl)-methanone]
47	CNC1CCN(C(=O)c2cc(-c3ccc(O)cc3)nc3[nH]nc(C(F)(F)F)c23)C1 (centres unmarked) [Example 406, [6-(4-Hydroxy-phenyl)-3-trifluoromethyl-1H-pyrazolo[3,4-b]pyridin-4-yl]-(3-methylamino-pyrrolidin-1-yl)-methanone]

Further lines, the compound ahead of its results:

Compound	inhibition at 1.14 µM [%]
Cc1n[nH]c2nc(-c3ccc(O)cc3)cc(C(=O)N3CC4CCC(C3)N4)c12 [Example 111, 3,8-Diaza-bicyclo[3.2.1]oct-3-yl-[6-(4-hydroxy-phenyl)-3-methyl-1H-pyrazolo[3,4-b]pyridin-4-yl]-methanone]	97
Cc1n[nH]c2nc(-c3ccc(O)cc3)cc(C(=O)N3CCCNCC3)c12 [Example 75, [1,4]Diazepan-1-yl-[6-(4-hydroxy-phenyl)-3-methyl-1H-pyrazolo[3,4-b]pyridin-4-yl]-methanone]	89
COC[C@H]1CN(C(=O)c2cc(-c3ccc(O)cc3)nc3[nH]nc(C)c23)CCN1 [Example 212, [6-(4-Hydroxy-phenyl)-3-methyl-1H-pyrazolo[3,4-b]pyridin-4-yl]-((R)-3-methoxymethyl-piperazin-1-yl)-methanone]	94
Cc1ccc([C@@H]2CNC[C@H]2NC(=O)c2cc(-c3ccc(O)cc3)nc3[nH]nc(C)c23)cc1 (relative stereo) [Example 119, 6-(4-Hydroxy-phenyl)-3-methyl-1H-pyrazolo[3,4-b]pyridine-4-carboxylic acid (trans-4-p-tolyl-pyrrolidin-3-yl)-amide]	91
Cc1n[nH]c2nc(-c3ccc(O)cc3)cc(C(=O)N3CC[C@@H](C4(N)CC4)C3)c12 [Example 203, [(R)-3-(1-Amino-cyclopropyl)-pyrrolidin-1-yl]-[6-(4-hydroxy-phenyl)-3-methyl-1H-pyrazolo[3,4-b]pyridin-4-yl]-methanone]	71
Cc1n[nH]c2nc(-c3ccc(O)cc3)cc(C(=O)NCC3CCCCN3)c12 (centres unmarked) [Example 245, 6-(4-Hydroxy-phenyl)-3-methyl-1H-pyrazolo[3,4-b]pyridine-4-carboxylic acid (piperidin-2-ylmethyl)-amide]	83
Cc1n[nH]c2nc(-c3ccc(O)cc3)cc(C(=O)NC(C)(C)CCN)c12 [Example 128, 6-(4-Hydroxy-phenyl)-3-methyl-1H-pyrazolo[3,4-b]pyridine-4-carboxylic acid (3-amino-1,1-dimethyl-propyl)-amide]	91
Cc1n[nH]c2nc(-c3ccc(O)cc3F)cc(C(=O)NCCC(C)(C)N)c12 [Example 67, 6-(2-Fluoro-4-hydroxy-phenyl)-3-methyl-1H-pyrazolo[3,4-b]pyridine-4-carboxylic acid (3-amino-3-methyl-butyl)-amide]	86
Cc1n[nH]c2nc(-c3ccc(O)cc3)cc(C(=O)NCC(C)(C)CN)c12 [Example 270, 6-(4-Hydroxy-phenyl)-3-methyl-1H-pyrazolo[3,4-b]pyridine-4-carboxylic acid (3-amino-2,2-dimethyl-propyl)-amide]	87
Cc1n[nH]c2nc(-c3ccc(O)c(F)c3)cc(C(=O)NC3CN4CCC3CC4)c12 (stereo in doubt) [Example 361, (R)-6-(3-Fluoro-4-hydroxy-phenyl)-3-methyl-1H-pyrazolo[3,4-b]pyridine-4-carboxylic acid (1-aza-bicyclo[2.2.2]oct-3-yl)-amide]	50
CC[C@H]1CN(C(=O)c2cc(-c3ccc(O)c(F)c3)nc3[nH]nc(C)c23)CCN1 [Example 295, ((S)-3-Ethyl-piperazin-1-yl)-[6-(3-fluoro-4-hydroxy-phenyl)-3-methyl-1H-pyrazolo[3,4-b]pyridin-4-yl]-methanone]	94
Cc1n[nH]c2nc(-c3ccc(O)c(F)c3)cc(C(=O)N3CCNC[C@@H]3C(C)C)c12 [Example 320, [6-(3-Fluoro-4-hydroxy-phenyl)-3-methyl-1H-pyrazolo[3,4-b]pyridin-4-yl]-((S)-2-isopropyl-piperazin-1-yl)-methanone]	72
Cc1n[nH]c2nc(-c3ccc(O)cc3)cc(C(=O)N3CCNCC3c3ccc(C(F)(F)F)cc3)c12 (centres unmarked) [Example 97, [6-(4-Hydroxy-phenyl)-3-methyl-1H-pyrazolo[3,4-b]pyridin-4-yl]-[2-(4-trifluoromethyl-phenyl)-piperazin-1-yl]-methanone]	96
